# Source: the kinase profiling compilation of Christmann-Franck et al. (2016)
# Tests used:
# Experiment in all cases: radiometric filter-binding kinase assay, Kinase HotSpot
# Conditions in all cases: compound 0.5 µM; ATP 10 µM
# [1] = molecular target: MAP3K3 (human) (UniProt Q99759)
# [2] = molecular target: CDK3 CCNE1 (human) (UniProt Q00526+P24864)
# [3] = molecular target: CAMK2G (human) (UniProt Q13555)
# [4] = molecular target: MAPK12 (human) (UniProt P53778)
# [5] = molecular target: TNK2 (human) (UniProt Q07912)
# [6] = molecular target: GSK3A (human) (UniProt P49840)
# [7] = molecular target: INSRR (human) (UniProt P14616)
# [8] = molecular target: CSK (human) (UniProt P41240)
# [9] = molecular target: TEK (human) (UniProt Q02763)
# [10] = molecular target: CDK1 CCNA2 (human) (UniProt P06493+P20248)
# [11] = molecular target: CDK4 CCND3 (human) (UniProt P30281+P11802)
# [12] = molecular target: IRAK4 (human) (UniProt Q9NWZ3)
# [13] = molecular target: ADRBK1 (human) (UniProt P25098)
# [14] = molecular target: FRK (human) (UniProt P42685)
# [15] = molecular target: MAP2K2 (human) (UniProt P36507)
# [16] = molecular target: AURKC (human) (UniProt Q9UQB9)
# [17] = molecular target: SRC (human) (UniProt P12931)
# [18] = molecular target: STK24 (human) (UniProt Q9Y6E0)
# [19] = molecular target: SLK (human) (UniProt Q9H2G2)
# [20] = molecular target: NEK9 (human) (UniProt Q8TD19)
# [21] = molecular target: STK33 (human) (UniProt Q9BYT3)
# [22] = molecular target: MAP3K9 (human) (UniProt P80192)
# [23] = molecular target: HIPK3 (human) (UniProt Q9H422)
# [24] = molecular target: MAP3K11 (human) (UniProt Q16584)
# [25] = molecular target: PDGFRA (human) (UniProt P16234)
# [26] = molecular target: PAK7 (human) (UniProt Q9P286)
# [27] = molecular target: PRKX (human) (UniProt P51817)
# [28] = molecular target: CAMK4 (human) (UniProt Q16566)
# [29] = molecular target: HCK (human) (UniProt P08631)
# [30] = molecular target: PIM3 (human) (UniProt Q86V86)
# [31] = molecular target: PIM2 (human) (UniProt Q9P1W9)
# [32] = molecular target: NEK1 (human) (UniProt Q96PY6)
# [33] = molecular target: JAK1 JH1 catalytic (human) (UniProt P23458)
# [34] = molecular target: FGR (human) (UniProt P09769)
# [35] = molecular target: WNK2 (human) (UniProt Q9Y3S1)
# [36] = molecular target: NTRK3 (human) (UniProt Q16288)
# [37] = molecular target: CDK1 CCNB1 (human) (UniProt P06493+P14635)
# [38] = molecular target: TGFBR1 (human) (UniProt P36897)
# [39] = molecular target: MAP4K2 (human) (UniProt Q12851)
# [40] = molecular target: AKT2 (human) (UniProt P31751)
# [41] = molecular target: CHEK1 (human) (UniProt O14757)
# [42] = molecular target: MAP3K2 (human) (UniProt Q9Y2U5)
# Sequence of WNK2 (human) (Q9Y3S1 whole entry, looked up): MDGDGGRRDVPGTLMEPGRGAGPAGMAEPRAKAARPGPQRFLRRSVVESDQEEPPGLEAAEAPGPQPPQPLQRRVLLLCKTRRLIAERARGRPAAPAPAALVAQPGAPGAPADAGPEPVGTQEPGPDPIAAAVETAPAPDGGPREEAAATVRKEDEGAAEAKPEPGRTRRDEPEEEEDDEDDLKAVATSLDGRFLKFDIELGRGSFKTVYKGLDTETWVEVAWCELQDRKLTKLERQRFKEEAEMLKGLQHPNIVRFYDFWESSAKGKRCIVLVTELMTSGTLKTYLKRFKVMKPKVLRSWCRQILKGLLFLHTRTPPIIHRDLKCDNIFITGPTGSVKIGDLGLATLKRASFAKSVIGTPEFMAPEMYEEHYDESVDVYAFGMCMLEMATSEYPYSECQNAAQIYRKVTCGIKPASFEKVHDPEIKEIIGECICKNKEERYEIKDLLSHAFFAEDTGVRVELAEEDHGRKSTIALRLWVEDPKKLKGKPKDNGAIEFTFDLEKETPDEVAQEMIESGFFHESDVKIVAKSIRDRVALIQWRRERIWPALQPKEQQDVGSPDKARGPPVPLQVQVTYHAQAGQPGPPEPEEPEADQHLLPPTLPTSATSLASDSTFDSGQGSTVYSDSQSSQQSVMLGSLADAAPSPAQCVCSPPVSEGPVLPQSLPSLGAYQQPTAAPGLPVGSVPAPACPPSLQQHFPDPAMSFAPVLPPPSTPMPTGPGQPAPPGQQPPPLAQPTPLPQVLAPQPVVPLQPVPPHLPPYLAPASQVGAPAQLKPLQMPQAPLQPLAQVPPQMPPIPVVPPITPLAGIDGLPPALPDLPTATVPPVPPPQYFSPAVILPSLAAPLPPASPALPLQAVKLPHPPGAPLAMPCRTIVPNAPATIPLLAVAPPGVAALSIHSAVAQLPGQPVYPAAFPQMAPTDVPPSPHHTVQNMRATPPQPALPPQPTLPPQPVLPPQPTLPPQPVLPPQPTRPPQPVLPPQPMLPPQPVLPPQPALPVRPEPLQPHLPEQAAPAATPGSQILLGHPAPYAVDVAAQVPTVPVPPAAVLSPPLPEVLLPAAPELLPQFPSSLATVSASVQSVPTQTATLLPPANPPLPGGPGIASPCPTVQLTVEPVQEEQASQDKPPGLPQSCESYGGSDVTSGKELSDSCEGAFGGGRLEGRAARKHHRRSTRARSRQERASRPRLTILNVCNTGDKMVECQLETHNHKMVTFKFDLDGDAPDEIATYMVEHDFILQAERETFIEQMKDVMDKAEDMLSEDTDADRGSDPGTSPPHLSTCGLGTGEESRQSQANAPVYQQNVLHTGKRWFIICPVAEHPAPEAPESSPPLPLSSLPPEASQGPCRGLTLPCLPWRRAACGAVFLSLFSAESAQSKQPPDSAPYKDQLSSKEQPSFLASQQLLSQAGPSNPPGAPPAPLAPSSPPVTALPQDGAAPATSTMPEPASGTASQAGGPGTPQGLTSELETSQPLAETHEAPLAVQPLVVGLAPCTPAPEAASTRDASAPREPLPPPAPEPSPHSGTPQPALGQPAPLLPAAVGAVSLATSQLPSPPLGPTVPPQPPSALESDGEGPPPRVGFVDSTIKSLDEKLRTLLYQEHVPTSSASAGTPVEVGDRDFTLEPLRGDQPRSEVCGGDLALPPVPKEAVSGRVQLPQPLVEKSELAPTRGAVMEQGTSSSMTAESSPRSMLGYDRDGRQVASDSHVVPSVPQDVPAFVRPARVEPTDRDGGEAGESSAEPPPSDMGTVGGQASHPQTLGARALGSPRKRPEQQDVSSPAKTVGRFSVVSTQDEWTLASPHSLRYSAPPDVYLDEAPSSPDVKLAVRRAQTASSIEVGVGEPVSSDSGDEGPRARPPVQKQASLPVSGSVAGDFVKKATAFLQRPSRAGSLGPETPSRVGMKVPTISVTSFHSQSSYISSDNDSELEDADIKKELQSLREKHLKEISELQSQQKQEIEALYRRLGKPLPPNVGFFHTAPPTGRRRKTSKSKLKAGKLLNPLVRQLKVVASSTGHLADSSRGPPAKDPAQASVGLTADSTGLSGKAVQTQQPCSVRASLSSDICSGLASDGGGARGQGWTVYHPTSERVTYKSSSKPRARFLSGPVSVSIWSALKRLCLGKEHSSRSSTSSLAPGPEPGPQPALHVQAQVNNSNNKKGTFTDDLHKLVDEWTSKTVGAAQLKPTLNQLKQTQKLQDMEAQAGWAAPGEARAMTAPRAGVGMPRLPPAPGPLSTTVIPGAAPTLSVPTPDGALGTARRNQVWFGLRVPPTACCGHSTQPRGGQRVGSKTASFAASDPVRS
# Sequence of HCK (human) (P08631 whole entry, looked up): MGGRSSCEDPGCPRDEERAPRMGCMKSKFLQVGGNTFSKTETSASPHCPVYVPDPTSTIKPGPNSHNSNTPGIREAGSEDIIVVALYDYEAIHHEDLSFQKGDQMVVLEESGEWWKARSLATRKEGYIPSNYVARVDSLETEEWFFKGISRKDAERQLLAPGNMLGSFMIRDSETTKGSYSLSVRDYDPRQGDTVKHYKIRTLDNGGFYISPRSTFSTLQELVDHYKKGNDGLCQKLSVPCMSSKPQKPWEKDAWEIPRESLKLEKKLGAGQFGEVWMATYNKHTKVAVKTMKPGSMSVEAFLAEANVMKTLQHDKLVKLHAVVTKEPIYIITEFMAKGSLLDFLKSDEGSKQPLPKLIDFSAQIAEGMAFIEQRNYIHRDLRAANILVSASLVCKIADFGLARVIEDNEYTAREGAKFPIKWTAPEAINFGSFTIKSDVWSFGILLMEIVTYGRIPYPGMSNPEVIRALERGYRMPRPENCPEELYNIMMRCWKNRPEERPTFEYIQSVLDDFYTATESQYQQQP
# Sequence of MAP3K9 (human) (P80192 whole entry, looked up): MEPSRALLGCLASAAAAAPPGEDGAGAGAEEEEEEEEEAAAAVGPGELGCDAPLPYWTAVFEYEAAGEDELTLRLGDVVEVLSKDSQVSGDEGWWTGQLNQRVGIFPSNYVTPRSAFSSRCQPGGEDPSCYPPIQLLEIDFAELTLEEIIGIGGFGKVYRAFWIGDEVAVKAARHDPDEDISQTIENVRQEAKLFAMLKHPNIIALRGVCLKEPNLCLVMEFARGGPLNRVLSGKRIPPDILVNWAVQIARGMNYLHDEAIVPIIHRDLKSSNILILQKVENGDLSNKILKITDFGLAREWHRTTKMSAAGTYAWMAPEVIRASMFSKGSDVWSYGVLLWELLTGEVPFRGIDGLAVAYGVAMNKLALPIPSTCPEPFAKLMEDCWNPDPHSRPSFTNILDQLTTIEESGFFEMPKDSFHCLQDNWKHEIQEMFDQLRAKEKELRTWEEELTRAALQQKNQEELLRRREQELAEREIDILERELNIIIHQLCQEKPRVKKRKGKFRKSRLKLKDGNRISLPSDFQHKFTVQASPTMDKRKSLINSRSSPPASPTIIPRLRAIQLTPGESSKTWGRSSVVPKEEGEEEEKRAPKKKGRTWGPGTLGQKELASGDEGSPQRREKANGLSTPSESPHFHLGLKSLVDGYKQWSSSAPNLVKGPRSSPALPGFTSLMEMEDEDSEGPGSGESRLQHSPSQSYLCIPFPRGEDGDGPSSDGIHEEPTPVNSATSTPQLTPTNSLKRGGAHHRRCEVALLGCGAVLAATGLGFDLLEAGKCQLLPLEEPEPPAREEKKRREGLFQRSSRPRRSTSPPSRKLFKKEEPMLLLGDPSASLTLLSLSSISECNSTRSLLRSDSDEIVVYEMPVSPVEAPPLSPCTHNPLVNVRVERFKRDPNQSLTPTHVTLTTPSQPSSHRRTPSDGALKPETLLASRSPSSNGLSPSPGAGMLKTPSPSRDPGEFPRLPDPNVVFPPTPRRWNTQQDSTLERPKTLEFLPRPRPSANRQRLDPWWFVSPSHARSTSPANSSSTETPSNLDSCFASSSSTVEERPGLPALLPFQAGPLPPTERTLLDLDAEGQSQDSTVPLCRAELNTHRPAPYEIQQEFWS
# Sequence of MAP3K3 (human) (Q99759 whole entry, looked up): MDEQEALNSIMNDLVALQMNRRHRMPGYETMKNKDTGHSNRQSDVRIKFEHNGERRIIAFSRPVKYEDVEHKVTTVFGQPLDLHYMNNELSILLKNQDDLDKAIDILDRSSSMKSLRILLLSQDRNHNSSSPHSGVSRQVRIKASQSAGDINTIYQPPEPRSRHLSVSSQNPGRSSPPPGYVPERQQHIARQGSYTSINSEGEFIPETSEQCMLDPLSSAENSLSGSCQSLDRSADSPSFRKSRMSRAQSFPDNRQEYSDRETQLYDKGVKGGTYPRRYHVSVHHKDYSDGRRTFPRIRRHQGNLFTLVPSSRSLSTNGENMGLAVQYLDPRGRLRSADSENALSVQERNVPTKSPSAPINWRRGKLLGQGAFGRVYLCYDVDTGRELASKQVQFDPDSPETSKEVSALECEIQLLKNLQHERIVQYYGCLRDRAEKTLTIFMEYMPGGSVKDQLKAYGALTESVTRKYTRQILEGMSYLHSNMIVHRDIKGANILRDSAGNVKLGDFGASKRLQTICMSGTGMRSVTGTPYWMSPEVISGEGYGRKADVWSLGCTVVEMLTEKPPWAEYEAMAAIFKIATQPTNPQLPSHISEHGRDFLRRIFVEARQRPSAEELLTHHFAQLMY
# Sequence of CHEK1 (human) (O14757 whole entry, looked up): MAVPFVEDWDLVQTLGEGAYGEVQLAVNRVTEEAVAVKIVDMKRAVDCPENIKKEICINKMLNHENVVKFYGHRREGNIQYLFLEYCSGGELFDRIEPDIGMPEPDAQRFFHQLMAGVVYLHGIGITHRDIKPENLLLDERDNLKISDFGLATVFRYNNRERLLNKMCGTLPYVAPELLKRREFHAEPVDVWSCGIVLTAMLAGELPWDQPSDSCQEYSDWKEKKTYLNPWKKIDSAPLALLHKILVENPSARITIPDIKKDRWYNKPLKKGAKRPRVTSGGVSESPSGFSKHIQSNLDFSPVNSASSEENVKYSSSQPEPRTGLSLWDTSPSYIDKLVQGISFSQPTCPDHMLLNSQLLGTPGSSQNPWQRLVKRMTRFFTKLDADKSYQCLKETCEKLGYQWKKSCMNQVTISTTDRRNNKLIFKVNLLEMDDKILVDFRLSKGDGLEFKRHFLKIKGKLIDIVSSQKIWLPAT
structure (smiles),measurement,setting,value
CC(=O)c1ccc(N2CCOCC2)cc1O,residual activity,[1],108%
same,residual activity,[2],102%
same,residual activity,[3],90.2%
same,residual activity,[4],78.7%
same,residual activity,[5],101%
same,residual activity,[6],101%
same,residual activity,[7],96.7%
same,residual activity,[8],99.1%
same,residual activity,[9],101%
same,residual activity,[10],99.8%
same,residual activity,[11],96.4%
same,residual activity,[12],120%
same,residual activity,[13],99%
same,residual activity,[14],91.6%
same,residual activity,[15],99.8%
same,residual activity,[16],104%
same,residual activity,[17],104%
same,residual activity,[18],99%
same,residual activity,[19],105%
same,residual activity,[20],93.9%
same,residual activity,[21],109%
same,residual activity,[22],112%
same,residual activity,[23],101%
same,residual activity,[24],94.8%
same,residual activity,[25],94.7%
same,residual activity,[26],102%
same,residual activity,[27],105%
same,residual activity,[28],93%
same,residual activity,[29],116%
same,residual activity,[30],115%
same,residual activity,[31],117%
same,residual activity,[32],114%
same,residual activity,[33],104%
same,residual activity,[34],95.6%
same,residual activity,[35],101%
same,residual activity,[36],101%
same,residual activity,[37],86.8%
same,residual activity,[38],96.6%
same,residual activity,[39],116%
same,residual activity,[40],96.2%
same,residual activity,[41],103%
same,residual activity,[42],109%
Nc1cccc(-c2cc3c(Oc4cccc(O)c4)ncnc3[nH]2)c1,residual activity,[1],96.4%
same,residual activity,[2],82.3%
same,residual activity,[3],105%
same,residual activity,[4],88.6%
same,residual activity,[5],19.6%
same,residual activity,[6],41.6%
same,residual activity,[7],96.3%
same,residual activity,[8],43.6%
same,residual activity,[9],60.7%
same,residual activity,[10],99.3%
same,residual activity,[11],92.8%
same,residual activity,[12],88.2%
same,residual activity,[13],108%
same,residual activity,[14],6.95%
same,residual activity,[15],104%
same,residual activity,[16],77.7%
same,residual activity,[17],2.07%
same,residual activity,[18],64.2%
same,residual activity,[19],64.1%
same,residual activity,[20],103%
same,residual activity,[21],80.3%
same,residual activity,[22],16.2%
same,residual activity,[23],94%
same,residual activity,[24],52.4%
same,residual activity,[25],73.6%
same,residual activity,[26],86.9%
same,residual activity,[27],114%
same,residual activity,[28],94.9%
same,residual activity,[29],6.65%
same,residual activity,[30],129%
same,residual activity,[31],108%
same,residual activity,[32],92.3%
same,residual activity,[33],106%
same,residual activity,[34],5.28%
same,residual activity,[35],103%
same,residual activity,[36],63.3%
same,residual activity,[37],98.9%
same,residual activity,[38],101%
same,residual activity,[39],55.5%
same,residual activity,[40],109%
same,residual activity,[41],66.2%
same,residual activity,[42],86.9%
